Laboratory results as given in the supplement of paper PMC12076712.

Legend:
Test in all cases: pIC50, kinobeads binding competition
Conditions in all cases: cell material: Jurkat lysate
[1] = target: MAST3 (UniProt O60307)
[2] = target: MAP3K4 (UniProt Q9Y6R4)
[3] = target: T1, SNRK (UniProt Q9NRH2)
T1 sequence (whole entry): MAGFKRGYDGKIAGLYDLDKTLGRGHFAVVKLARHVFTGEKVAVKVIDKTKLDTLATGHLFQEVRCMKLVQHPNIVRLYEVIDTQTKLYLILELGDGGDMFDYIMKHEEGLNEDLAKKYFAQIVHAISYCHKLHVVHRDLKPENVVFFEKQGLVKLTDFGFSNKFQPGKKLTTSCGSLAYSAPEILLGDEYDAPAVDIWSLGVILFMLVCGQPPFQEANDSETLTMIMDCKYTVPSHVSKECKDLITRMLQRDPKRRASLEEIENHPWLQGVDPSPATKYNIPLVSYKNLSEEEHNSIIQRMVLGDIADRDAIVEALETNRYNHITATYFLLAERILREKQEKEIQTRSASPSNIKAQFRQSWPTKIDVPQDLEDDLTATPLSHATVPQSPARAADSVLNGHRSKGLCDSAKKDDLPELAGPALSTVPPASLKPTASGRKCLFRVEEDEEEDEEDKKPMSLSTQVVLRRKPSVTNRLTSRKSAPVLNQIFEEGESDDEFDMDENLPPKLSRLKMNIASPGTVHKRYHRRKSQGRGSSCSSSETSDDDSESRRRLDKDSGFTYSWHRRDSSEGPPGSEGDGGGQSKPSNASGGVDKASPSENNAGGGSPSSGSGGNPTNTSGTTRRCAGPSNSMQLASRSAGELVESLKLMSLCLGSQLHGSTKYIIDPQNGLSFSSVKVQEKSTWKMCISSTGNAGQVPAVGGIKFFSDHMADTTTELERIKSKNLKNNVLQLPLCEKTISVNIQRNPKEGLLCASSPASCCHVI

[4] = target: UniProt P19525
[5] = target: PRKACB (UniProt P22694)
[6] = target: SLK (UniProt Q9H2G2)
[7] = target: NEK7 (UniProt Q8TDX7)
[8] = target: T2, SGK3 (UniProt Q96BR1)
T2 sequence (whole entry): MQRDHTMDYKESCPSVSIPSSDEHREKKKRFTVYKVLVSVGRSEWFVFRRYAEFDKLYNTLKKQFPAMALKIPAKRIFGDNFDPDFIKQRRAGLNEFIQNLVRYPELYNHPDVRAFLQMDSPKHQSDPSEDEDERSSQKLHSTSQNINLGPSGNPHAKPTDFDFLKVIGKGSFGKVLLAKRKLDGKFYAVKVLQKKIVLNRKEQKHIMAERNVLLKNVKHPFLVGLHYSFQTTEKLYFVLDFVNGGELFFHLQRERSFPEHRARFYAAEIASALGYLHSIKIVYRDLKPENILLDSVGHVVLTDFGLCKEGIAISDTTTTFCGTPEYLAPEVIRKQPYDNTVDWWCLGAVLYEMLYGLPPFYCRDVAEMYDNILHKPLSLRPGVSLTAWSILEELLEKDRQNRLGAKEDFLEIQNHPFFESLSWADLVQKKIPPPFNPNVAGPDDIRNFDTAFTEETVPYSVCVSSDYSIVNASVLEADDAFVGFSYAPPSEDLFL

[9] = target: PAK2 (UniProt Q13177)
[10] = target: T3, UniProt Q99759
T3 sequence (whole entry): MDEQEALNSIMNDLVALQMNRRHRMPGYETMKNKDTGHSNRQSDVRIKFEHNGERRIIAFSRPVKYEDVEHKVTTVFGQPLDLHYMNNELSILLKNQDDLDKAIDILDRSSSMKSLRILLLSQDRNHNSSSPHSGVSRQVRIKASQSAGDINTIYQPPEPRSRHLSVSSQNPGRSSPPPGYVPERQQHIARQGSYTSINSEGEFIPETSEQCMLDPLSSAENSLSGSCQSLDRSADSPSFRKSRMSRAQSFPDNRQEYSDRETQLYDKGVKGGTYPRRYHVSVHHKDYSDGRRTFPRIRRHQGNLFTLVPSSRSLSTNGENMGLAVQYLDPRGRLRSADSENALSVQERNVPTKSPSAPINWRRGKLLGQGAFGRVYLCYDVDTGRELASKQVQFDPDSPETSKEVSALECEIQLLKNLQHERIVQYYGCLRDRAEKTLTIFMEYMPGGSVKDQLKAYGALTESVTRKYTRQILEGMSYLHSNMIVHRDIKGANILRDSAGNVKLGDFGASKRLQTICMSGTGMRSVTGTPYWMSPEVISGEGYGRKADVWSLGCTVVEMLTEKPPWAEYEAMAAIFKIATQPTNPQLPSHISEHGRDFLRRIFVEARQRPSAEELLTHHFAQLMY

[11] = target: T4, UniProt P45985
T4 sequence (whole entry): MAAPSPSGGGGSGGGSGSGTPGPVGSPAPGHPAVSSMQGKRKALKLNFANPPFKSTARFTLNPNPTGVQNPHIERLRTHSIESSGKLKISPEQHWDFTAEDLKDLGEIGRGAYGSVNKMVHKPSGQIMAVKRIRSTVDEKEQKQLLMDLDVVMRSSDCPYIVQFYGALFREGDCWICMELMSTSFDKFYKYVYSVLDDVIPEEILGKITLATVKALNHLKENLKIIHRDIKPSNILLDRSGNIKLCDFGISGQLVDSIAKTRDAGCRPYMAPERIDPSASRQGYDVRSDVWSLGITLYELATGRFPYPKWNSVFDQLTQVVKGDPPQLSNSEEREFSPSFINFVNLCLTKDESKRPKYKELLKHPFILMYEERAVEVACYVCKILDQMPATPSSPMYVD

Chain of NEK7 (Q8TDX7 whole entry, looked up): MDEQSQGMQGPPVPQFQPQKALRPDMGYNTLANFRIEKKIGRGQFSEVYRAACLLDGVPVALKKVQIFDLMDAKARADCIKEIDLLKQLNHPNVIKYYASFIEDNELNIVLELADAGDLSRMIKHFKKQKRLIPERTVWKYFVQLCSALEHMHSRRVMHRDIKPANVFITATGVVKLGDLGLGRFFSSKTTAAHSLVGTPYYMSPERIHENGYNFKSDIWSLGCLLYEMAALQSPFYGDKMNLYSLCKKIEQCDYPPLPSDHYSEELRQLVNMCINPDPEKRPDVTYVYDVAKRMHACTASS
Chain of UniProt P19525 (P19525 whole entry): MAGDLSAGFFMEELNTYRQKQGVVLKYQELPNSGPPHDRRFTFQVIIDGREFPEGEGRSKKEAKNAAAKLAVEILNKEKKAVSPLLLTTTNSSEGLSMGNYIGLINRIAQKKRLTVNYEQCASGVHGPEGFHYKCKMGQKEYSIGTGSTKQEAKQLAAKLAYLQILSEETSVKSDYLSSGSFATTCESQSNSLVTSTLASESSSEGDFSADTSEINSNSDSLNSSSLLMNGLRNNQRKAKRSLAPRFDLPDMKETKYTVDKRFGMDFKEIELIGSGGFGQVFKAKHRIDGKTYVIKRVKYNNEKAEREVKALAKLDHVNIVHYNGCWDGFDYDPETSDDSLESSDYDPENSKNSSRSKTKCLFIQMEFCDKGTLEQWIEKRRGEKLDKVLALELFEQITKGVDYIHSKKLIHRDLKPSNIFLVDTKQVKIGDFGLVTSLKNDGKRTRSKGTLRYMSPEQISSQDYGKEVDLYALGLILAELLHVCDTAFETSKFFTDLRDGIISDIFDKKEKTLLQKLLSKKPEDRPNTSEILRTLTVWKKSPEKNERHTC
Chain of MAST3 (O60307 whole entry): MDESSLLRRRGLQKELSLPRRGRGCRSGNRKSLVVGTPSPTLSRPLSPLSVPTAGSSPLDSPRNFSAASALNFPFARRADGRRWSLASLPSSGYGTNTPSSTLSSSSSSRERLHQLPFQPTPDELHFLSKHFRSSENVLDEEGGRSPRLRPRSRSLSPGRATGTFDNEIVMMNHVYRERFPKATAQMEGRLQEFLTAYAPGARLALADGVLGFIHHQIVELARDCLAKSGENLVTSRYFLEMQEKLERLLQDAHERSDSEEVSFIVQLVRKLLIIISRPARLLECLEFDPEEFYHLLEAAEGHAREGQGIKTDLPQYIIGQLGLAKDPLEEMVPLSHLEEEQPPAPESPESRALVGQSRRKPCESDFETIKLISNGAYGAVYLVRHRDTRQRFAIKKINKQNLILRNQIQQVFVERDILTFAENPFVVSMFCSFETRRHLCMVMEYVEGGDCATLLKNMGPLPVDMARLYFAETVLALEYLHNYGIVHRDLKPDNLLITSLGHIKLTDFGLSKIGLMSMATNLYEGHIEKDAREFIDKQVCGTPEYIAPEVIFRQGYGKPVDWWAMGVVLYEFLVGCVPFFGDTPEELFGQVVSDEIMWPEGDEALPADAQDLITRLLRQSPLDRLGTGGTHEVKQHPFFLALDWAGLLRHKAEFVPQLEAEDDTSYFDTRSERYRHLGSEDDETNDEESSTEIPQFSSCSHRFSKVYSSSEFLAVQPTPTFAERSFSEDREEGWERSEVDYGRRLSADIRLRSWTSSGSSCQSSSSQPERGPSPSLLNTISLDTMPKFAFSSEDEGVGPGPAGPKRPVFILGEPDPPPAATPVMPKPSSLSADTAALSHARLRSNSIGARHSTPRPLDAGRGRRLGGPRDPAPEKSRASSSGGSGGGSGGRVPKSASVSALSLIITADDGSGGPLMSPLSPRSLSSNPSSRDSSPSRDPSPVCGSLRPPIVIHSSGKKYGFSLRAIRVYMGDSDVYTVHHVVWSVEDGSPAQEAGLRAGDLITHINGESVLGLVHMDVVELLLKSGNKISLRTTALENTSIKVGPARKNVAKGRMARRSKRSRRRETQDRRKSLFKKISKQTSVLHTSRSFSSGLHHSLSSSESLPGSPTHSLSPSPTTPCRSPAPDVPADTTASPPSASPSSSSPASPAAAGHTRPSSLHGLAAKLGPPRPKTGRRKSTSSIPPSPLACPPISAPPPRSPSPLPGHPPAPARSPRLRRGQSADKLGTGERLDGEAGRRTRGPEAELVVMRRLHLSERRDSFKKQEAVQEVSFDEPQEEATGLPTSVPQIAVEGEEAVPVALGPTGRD
Chain of MAP3K4 (Q9Y6R4 whole entry): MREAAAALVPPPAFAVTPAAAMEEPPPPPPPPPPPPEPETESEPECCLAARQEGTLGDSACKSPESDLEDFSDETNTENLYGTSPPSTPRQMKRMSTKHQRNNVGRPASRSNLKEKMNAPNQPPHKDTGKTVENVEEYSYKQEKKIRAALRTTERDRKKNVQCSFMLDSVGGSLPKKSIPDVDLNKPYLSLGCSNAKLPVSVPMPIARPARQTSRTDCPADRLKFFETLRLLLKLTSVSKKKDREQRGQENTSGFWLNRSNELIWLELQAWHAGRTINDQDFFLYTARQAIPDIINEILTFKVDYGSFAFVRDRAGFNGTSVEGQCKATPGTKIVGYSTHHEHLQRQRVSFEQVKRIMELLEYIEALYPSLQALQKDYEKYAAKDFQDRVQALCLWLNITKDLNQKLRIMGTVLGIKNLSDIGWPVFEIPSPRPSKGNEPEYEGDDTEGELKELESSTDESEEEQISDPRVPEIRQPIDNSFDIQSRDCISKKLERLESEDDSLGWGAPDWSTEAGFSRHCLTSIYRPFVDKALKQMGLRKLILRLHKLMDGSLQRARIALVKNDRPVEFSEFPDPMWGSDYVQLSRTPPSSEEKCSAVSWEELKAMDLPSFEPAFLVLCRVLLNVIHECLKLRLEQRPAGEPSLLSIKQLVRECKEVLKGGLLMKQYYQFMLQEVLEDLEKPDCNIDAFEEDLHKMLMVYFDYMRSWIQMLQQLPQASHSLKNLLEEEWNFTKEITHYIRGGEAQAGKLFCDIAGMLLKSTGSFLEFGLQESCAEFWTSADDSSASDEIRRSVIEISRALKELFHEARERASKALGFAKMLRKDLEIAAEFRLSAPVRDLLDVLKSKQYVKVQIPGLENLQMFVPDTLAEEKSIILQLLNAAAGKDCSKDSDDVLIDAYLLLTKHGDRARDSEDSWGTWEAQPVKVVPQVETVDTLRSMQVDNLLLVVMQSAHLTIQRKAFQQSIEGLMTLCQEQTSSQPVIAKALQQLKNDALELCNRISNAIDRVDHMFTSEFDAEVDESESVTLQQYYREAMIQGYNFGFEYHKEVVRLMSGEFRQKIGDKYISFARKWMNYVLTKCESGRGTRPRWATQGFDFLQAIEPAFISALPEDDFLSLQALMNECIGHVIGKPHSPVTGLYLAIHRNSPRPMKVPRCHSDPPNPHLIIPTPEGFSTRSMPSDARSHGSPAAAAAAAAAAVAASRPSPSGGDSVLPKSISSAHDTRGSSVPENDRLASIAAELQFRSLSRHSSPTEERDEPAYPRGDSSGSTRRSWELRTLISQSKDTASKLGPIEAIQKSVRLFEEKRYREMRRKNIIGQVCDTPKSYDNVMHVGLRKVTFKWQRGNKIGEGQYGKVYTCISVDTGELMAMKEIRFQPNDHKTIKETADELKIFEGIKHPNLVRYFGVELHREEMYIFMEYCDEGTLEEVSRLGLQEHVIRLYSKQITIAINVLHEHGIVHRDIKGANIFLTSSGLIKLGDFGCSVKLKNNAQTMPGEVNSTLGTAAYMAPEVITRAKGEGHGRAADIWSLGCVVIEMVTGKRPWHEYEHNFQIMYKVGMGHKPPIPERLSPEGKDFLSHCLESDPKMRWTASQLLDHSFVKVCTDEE
Chain of PAK2 (Q13177 whole entry): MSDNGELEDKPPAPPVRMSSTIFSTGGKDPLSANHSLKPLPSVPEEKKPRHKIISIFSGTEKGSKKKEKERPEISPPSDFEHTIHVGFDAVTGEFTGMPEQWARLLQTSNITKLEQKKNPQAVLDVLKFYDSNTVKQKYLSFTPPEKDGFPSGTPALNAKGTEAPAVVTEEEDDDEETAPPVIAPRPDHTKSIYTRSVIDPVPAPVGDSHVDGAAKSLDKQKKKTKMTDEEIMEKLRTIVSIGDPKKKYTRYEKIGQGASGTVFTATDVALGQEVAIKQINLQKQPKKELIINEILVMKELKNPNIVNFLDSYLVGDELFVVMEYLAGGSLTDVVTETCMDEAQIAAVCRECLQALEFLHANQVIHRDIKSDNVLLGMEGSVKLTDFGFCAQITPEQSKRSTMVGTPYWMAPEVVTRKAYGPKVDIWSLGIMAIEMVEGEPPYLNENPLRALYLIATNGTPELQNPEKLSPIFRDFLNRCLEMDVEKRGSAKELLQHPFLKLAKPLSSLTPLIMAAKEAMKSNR

- pIC50 [1]: < 4.52
- pIC50 [2]: < 4.52
- pIC50 [3]: < 4.52
- pIC50 [4]: < 4.52
- pIC50 [5]: < 4.52
- pIC50 [6]: < 4.52
- pIC50 [7]: < 4.52
- pIC50 [8]: < 4.52
- pIC50 [9]: < 4.52
- pIC50 [10]: < 4.52
- pIC50 [11]: < 4.52
SMILES: CCc1cnn2c(NCc3ccc[n+]([O-])c3)cc(N3CCCC[C@H]3CCO)nc12 [dinaciclib]
